# Data: PubChem BioAssay AID720588 (Broad Institute, 2013)
# Several values for one entry are separate records, joined by “and”; a condition that tells them apart may be missing. Equal values may be shown once.
# Tested on: HEK293T viability, CellTiter-Glo ATP luminescence, 72 h
# Test: HEK293T cell cytotoxicity, dose response, cytotoxicity control, CellTiter-Glo luminescence, cherry-pick, set 3 (AID 720588);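 further: potency for luminescence loss meaning cytotoxic compounds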
row,SMILES,AC35
1,CCc1nc(N)nc(N)c1-c1ccc(Cl)c(N=[N+]=[N-])c1,8.98 µM
2,Cc1cccc(/C=C(\c2nc3ccccc3[nH]2)S(=O)(=O)c2ccccc2)c1,8.44 µM
3,Nc1nc(=S)c2[nH]cnc2[nH]1,5.79 µM
4,O=C1Nc2ccccc2C1=Nc1ccc(Br)cc1,14.1 µM
5,COC(=O)C1=C(C)N(Cc2cccc(C(F)(F)F)c2)C(=NCc2ccc(OC)cc2)NC1c1cccc(F)c1 (stereo not drawn),4.96 µM
6,O=C(NC1CCCC1)N1CCCCN2[C@@H](CO)[C@@H](c3ccc(/C=C/c4ccccc4)cc3)[C@@H]2C1,9.42 µM
7,O=C(NCc1ccc(F)cc1)N1[C@H]2CC[C@@H]1C=C(c1ccc(F)cc1OCc1ccccc1)C2,14.4 µM
8,Cc1cc2sc3ccc(C#CC4(O)CCCCC4)cc3c(=O)c2cc1C,18.4 µM
9,COC(=O)C[C@H]1CC[C@@H]2[C@H](COc3ccc(NC(=O)Nc4cccc(Cl)c4)cc3C(=O)N2C)O1,17.8 µM
10,O=c1ccc2ccccc2c2ccccc12,14.1 µM
11,CCCCC[C@H](C)N1C[C@H](COCc2ccccc2)Oc2cc(N3CC[C@@H](N(C)C)C3)ccc2S1(=O)=O,14.8 µM
12,COc1cc2c(OC(C)=O)c3c(c(-c4ccc5c(c4)OCO5)c2cc1OC)C(=O)OC3,0.964 µM
13,OCC1OC(n2ccc3c2ncn2ncnc32)C(O)C1O (stereo not drawn),14.6 µM
14,CN(Cc1cnc2nc(N)nc(N)c2n1)c1ccc(C(=O)N[C@@H](CCC(=O)O)C(=O)O)cc1,0.0442 µM and 0.0275 µM
15,C=C1C(=O)OC2C1CCC(C)C1C=CC(=O)C12C (stereo not drawn),8.71 µM
16,S=c1[nH]nc(-c2cc(-c3ccccc3)n[nH]2)n1/N=C/C(Br)=C/c1ccccc1,12.4 µM
17,C[C@H]1CN([C@@H](C)CO)S(=O)(=O)c2ccc(C#CC(C)(C)O)cc2O[C@@H]1CN(C)Cc1ccc(-c2ccccc2)cc1,3.6 µM
18,CCOC(=O)[C@]12Cc3ccc(C)cc3[C@H]1N(C1CCCCC1)C(=O)c1ccccc12,9.24 µM
19,CC12CCC3C(CCC4(O)CC(O)CCC34C=NO)C1(O)CCC2C1=COC(=O)C1 (stereo not drawn),0.25 µM
20,COc1ccc(C=C2CCc3ccccc3C2=O)cc1,16.2 µM
21,CC(=O)OC1CC2(O)C3CCC4CC(O)CCC4(C)C3CCC2(C)C1C1=CC(=O)OC1 (stereo not drawn),0.262 µM
22,O=C(C[C@@H]1C[C@H]2c3cc(NS(=O)(=O)c4ccc(F)cc4)ccc3O[C@H]2[C@H](CO)O1)NCc1ccc(-c2ccccc2)cc1,18.7 µM

row,SMILES,AC35
1,COc1ccccc1-c1ccc(OCCCN2CCC(C(O)(c3ccccc3)c3ccccc3)CC2)cc1,10.3 µM
2,C(=N\Nc1ccc2ccccc2n1)/c1ccc2c(c1)OCCO2,10.4 µM
3,CN(C[C@H]1N[C@@H](CO)[C@@H]1c1ccc(C2=CCCC2)cc1)C(=O)c1ccc(F)cc1,5.64 µM
4,C[C@@H]1CN([C@H](C)CO)C(=O)c2cc(NC(=O)c3ccccc3)ccc2O[C@@H](C)CCCCO[C@H]1CN(C)C(=O)Nc1cccc2ccccc12,2.06 µM
5,CCc1ccc(/C=C2\SC(=S)N(CCCC(=O)N3CCN(C)CC3)C2=O)cc1,17.6 µM
6,Cc1ccc(C)c(S(=O)(=O)N2CCN(c3ncnc4sccc34)CC2)c1,4.95 µM
7,C[C@@H]1O[C@@H](O[C@@H]2C=C3CCC4C(CC[C@]5(C)[C@@H](c6ccc(=O)oc6)CC[C@]45O)[C@@]3(C)CC2)[C@H](O)[C@H](O)[C@H]1O (stereo partly drawn),0.0201 µM
8,CN1c2ccc(-c3ccc(C#N)cc3)cc2[C@H]2[C@H](CCN2S(=O)(=O)c2cccc(F)c2)[C@@H]1CO,23.4 µM
9,Nc1ccc(Cn2ccc3c4c(N)nc(N)nc4ccc32)cc1,0.125 µM
10,C[C@@H]1CN([C@@H](C)CO)C(=O)c2cccc(N(C)C)c2O[C@@H]1CN(C)Cc1ccc(C(=O)Nc2ccccc2N)cc1,8.32 µM
11,C=C1C(=O)C=C[C@]2(C)C[C@@H]3OC(=O)[C@](C)(O)[C@H]3C[C@@H]12,8.77 µM
12,CN(CCO)c1ccc(/C=N/Nc2nncc3ccccc23)cc1,13 µM
13,C[C@@H]1CN([C@@H](C)CO)S(=O)(=O)c2ccc(C#Cc3ccncc3)cc2O[C@H]1CN(C)S(=O)(=O)c1ccccc1,24.5 µM
14,COc1ccc(OC)c(-c2nnc3n2N=C(c2ccc(OC)c(OC4CCOC4)c2)CS3)c1 (stereo not drawn),9.24 µM
15,C/C(=N\NC(=O)c1n[nH]c2c1CCC2)c1cccs1,10.8 µM
16,c1ccc(Nc2nnc(-c3ccc4c(c3)OCO4)o2)cc1,3.33 µM
17,COc1ccccc1NC(=O)N1CCCCN2[C@H](CO)[C@H](c3ccc(-c4cccc(C)c4)cc3)[C@H]2C1,10.4 µM
18,O=C1NC(=O)N(c2ccccc2)C(=O)/C1=C\C=C\c1ccccc1,19.1 µM
19,Cc1cc(C(=O)Nc2ccc3c(c2)C(=O)N(C)[C@@H]2CC[C@@H](CC(=O)NCc4ccc(-c5ccccc5)cc4)O[C@H]2CO3)no1,24.5 µM
20,C[C@@H]1CCCCO[C@H](CN(C)Cc2ccc(C(=O)Nc3ccccc3N)cc2)[C@@H](C)CN([C@H](C)CO)C(=O)c2cc(NS(=O)(=O)c3ccc(F)cc3)ccc2O1,13.3 µM
21,O=c1cc(-c2ccccc2)oc2ccc3ccccc3c12,1.57 µM
22,CCCCc1c(-c2ccccc2OC)ncn1Cc1ccc(C(C)(C)C)cc1,6.42 µM

row,SMILES,AC35
1,O=C(Nc1ccc(F)cc1)N1CCCCN2[C@@H](CO)[C@H](c3ccc(C4=CCCCC4)cc3)[C@@H]2C1,9.39 µM
2,O=C(O)c1ccc(N/N=C/c2ccc3nccnc3c2)cc1,11.9 µM
3,Cc1ccc(S(=O)(=O)Nc2ccc3c(c2)C(=O)N([C@H](C)CO)C[C@H](C)[C@@H](CN(C)Cc2ccc(C(F)(F)F)cc2)OCCCC[C@H](C)O3)cc1,8.51 µM
4,C[C@H]1CN([C@@H](C)CO)S(=O)(=O)c2ccc(C#Cc3ccncc3)cc2O[C@@H]1CN(C)S(=O)(=O)c1ccccc1,12.3 µM
5,C(=N\Nc1nc2ccccc2s1)/c1ccccn1,3.56 µM
6,O=C(C[C@H]1C[C@H]2c3cc(NS(=O)(=O)c4ccc(F)cc4)ccc3O[C@H]2[C@H](CO)O1)NCc1ccc(Oc2ccccc2)cc1,16 µM
7,NC(Cc1ccc(C(F)(F)F)cc1)c1csc(NC(=O)Nc2ccccc2Cc2ccccc2)n1 (stereo not drawn),12.4 µM
8,C[C@@H]1CN([C@@H](C)CO)C(=O)Cc2cc(NC(=O)Nc3ccc(C(F)(F)F)cc3)ccc2O[C@@H]1CN(C)Cc1ccc(C(=O)Nc2ccccc2N)cc1,17.4 µM
9,COc1ccc(S(=O)(=O)N2CC[C@@H]3[C@@H](CO)Nc4ccc(-c5ccc(C#N)cc5)cc4[C@@H]32)cc1,16.5 µM
10,N#C[C@H]1[C@H](c2ccc(C#Cc3ccccc3F)cc2)[C@@H](CO)N1C(=O)C1CCCCC1,13.2 µM
11,CN1c2ccc(-c3ccc(C#N)cc3)cc2[C@H]2[C@H](CCN2S(=O)(=O)c2cccc(F)c2)[C@H]1CO,13.4 µM
12,CCCCCCCCCCCCCCCCCCNc1ccn(C2OC(COP(=O)(O)OCC3OC(n4cc(F)c(=O)[nH]c4=O)CC3O)C(O)C2O)c(=O)n1 (stereo not drawn),6.6 µM
13,O=c1[nH]c(=O)n([C@H]2C[C@H](O)[C@@H](CO)O2)cc1F,5.28 µM
14,COc1ccc(NC(=S)N=Nc2c(O)[nH]c3ccccc23)cc1,7.54 µM
15,Cc1ccc(S(=O)(=O)Nc2ccc3c(c2)C(=O)N([C@@H](C)CO)C[C@H](C)[C@@H](CN(C)Cc2ccc(C(F)(F)F)cc2)OCCCC[C@@H](C)O3)cc1,12.8 µM
16,N#CC(C#N)=C1C=CC=CN1/C(=C\c1ccco1)C(=O)c1ccc(Cl)cc1,3.47 µM
17,CCCCCCCN(c1ccccc1)[C@@H]1C[C@H]2CCCC(=O)N3CC[C@@H](C1)[C@@H]23,13.3 µM
18,CC(C)(C)c1ccc(/C=N/Nc2ccc(C(=O)O)cc2)cc1,16.5 µM
19,CCCCCCCCn1c2c(c(=N)c3c1CCC3)CCCC2,3.51 µM
20,CC(C)=CCC/C(C)=C/CN1C(=O)N(c2ccc(F)cc2)[C@H]2C[C@@H](c3ccccc3)[C@@H](C)[C@@H](C(=O)N3CCOCC3)C[C@H]21,2.01 µM
21,Oc1cccc(-c2nnc(-c3cccc(O)c3)nn2)c1,7.1 µM
22,CC(C)(C)C(=O)Cn1ncc(Cl)c(Cl)c1=O,14.8 µM

row,SMILES,AC35
1,CCN1C/C(=C/c2ccc(N3CCOCC3)cc2)C(=O)/C(=C/c2ccc(N3CCOCC3)cc2)C1,9.96 µM
2,BrC(=C\c1ccccc1)/C=N/n1cnnc1,17.8 µM
3,C[C@@H]1CN([C@H](C)CO)S(=O)(=O)c2ccc(C#CC(C)(C)O)cc2O[C@H]1CN(C)Cc1ccc(-c2ccccc2)cc1,7.28 µM
4,Cc1cc(-c2nc3cc(F)ccc3s2)ccc1N,16.9 µM
5,CO[C@H]1CN(C)C(=O)c2cc(NC(=O)c3ccc(Oc4ccccc4)cc3)ccc2OC[C@H](C)NC[C@@H]1C,14.5 µM
6,CC(=O)OC1CC(OC2C(O)CC(OC3C(O)CC(OC4CCC5(C)C(CCC6C5CC(O)C5(C)C(C7=CC(=O)OC7)CCC65O)C4)OC3C)OC2C)OC(C)C1OC1OC(CO)C(O)C(O)C1O (stereo not drawn),0.182 µM
7,O=C1NC(=O)N(Cc2ccc(F)cc2)C(=O)/C1=C\C=C\c1ccco1,13.3 µM
8,C[C@@H]1CN([C@@H](C)CO)C(=O)c2cc(NS(=O)(=O)c3ccc(Cl)cc3)ccc2O[C@@H]1CN(C)Cc1ccc(C(=O)Nc2ccccc2N)cc1,9.95 µM
9,Cc1cccc(/C=N/Nc2ccc3ccccc3n2)c1,11.2 µM
10,C[C@@H]1CN([C@H](C)CO)C(=O)c2cccc(N(C)C)c2O[C@@H]1CN(C)Cc1ccc(C(=O)Nc2ccccc2N)cc1,11.7 µM
11,Cc1cccc(CN2C(=O)/C(=C\c3ccc(C(=O)NCCCN4CCN(C)CC4)cc3)Oc3ccccc32)c1,13.6 µM
12,C[C@@H]1O[C@@H](O[C@@H]2C=C3CC[C@@H]4C(CC[C@]5(C)[C@@H](c6ccc(=O)oc6)CC[C@]45O)[C@@]3(C)CC2)[C@H](O)[C@H](O)[C@H]1O (stereo partly drawn),< 0.011 µM
13,CC12CCC(O)CC1CCC1C2CCC2(C)C(C3=CC(=O)OC3)CCC12O (stereo not drawn),0.375 µM
14,C[C@@H]1O[C@@H](O[C@H]2C[C@@H](O)[C@]3(CO)[C@H]4[C@H](O)C[C@]5(C)[C@@H](C6COC(=O)C6)CC[C@]5(O)[C@@H]4CC[C@]3(O)C2)[C@H](O)[C@H](O)[C@H]1O (stereo partly drawn),2.22 µM
15,CNC[C@H](CC1CCCCC1)NC[C@H](CO)NCCc1cccc(C(F)(F)F)c1,10.8 µM
16,C[C@]12CC[C@H](O)C[C@H]1CC[C@@H]1[C@@H]2CC[C@]2(C)[C@@H](C3=CC(=O)OC3)CC[C@]12O,0.629 µM
17,COc1ccc(Cn2cc3c(-c4ccc(F)cc4)nnc-3c3cc(OC)c(OC)cc32)cc1,10.2 µM
18,COC(=O)c1ccccc1-c1c2ccc(=N)cc-2oc2cc(N)ccc12,15.3 µM
19,CC(=NNc1ccc2ccccc2n1)c1ccccn1,1.12 µM
20,COc1ccc(-c2cc(CNc3nc(NC(C)C)nc4cc(-c5ccccc5)sc34)on2)cc1,12.5 µM
21,Nc1nc2cc3c(cc2cc1C(=O)NCCc1c[nH]c2ccccc12)OCO3,5.04 µM
22,CC(C)CC#Cc1ccc([C@@H]2[C@@H](CO)N3CCCCN(S(=O)(=O)c4ccc(F)cc4)C[C@H]23)cc1,16.1 µM
